Each molecule was assayed against human GPR40 receptor (Homo sapiens, UniProt O14842) (assay: Assay II: IP1 accumulation (IPOne HTRF) in 1321N1 cells stably expressing human GPR40). Conditions: 1321N1 cells expressing human GPR40, stimulation 1 h at 37° C., 5% CO2, LiCl 50 mM.
Format: cell-based
Procedure: IP1 accumulation measurements using the IPOne assay system—1321N1 cells stably expressing human GPR40 receptor (Euroscreen, Belgium) are seeded 24 h before the assay in white 384-well plates in culture medium containing 10% FCS, 1% Na-Pyruvate and 400 μg/mL G418. IP1 is assayed according to the manufacturers description (Cisbio Bioassays, France). In brief, the assay is started by substitution of the culture medium by stimulation buffer (Hepes 10 mM, CaCl2 1 mM, MgCl2 0.5 mM, KCl 4.2 mM, NaCl 146 mM, glucose 5.5 mM and LiCl 50 mM, pH 7.4). Cells are stimulated for 1 h at 37° C., 5% CO2 by addition of the compounds that are diluted in stimulation buffer containing LiCl. Assays are stopped by adding HTRF-conjugates (IP1-d2 and Anti-IP1 cryptate Tb) and lysis buffer, provided by the manufacturer. After an incubation time of 1 h at room temperature plates are measured using an EnVision™, Perkin Elmer. The obtained fluorescence ratios at 665/615 nM are then used to calculate the pEC50 values using Assay Explorer 3.3 Software (Accelrys, Inc.) by interpolation using an IP1 reference curve and subsequent sigmoidal curve fitting allowing for a variable hill slope.

Sequence of human GPR40 receptor (O14842 whole entry): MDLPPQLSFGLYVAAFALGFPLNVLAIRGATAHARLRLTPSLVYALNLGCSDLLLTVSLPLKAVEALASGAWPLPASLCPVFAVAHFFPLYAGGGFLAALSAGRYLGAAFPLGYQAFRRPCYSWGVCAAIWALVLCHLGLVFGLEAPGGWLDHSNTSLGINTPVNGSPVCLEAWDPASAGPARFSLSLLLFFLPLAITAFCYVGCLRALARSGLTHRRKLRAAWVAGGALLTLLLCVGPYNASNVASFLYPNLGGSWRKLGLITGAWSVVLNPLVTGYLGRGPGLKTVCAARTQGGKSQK

Row | SMILES | EC50 [nM]
1 | Cc1cc(-c2ccc(=O)n(C)c2)cc(C)c1-c1ccc(F)c2c1CC[C@H]2Oc1ccc2c(c1)OC[C@H]2CC(=O)O [Example 85, 2-((S)-6-((R)-4-(2,6-Dimethyl-4-(1-methyl-6-oxo-1,6-dihydropyridin-3-yl)phenyl)-7-fluoro-2,3-dihydro-1H-inden-1-yloxy)-2,3-dihydrobenzofuran-3-yl)acetic acid] | 7
2 | Cc1cc(-n2cncn2)cc(C)c1-c1ccc(F)c2c1CC[C@H]2Oc1ccc2c(c1)OC[C@H]2CC(=O)O [Example 86, 2-((S)-6-((R)-4-(2,6-Dimethyl-4-(1H-1,2,4-triazol-1-yl)phenyl)-7-fluoro-2,3-dihydro-1H-inden-1-yloxy)-2,3-dihydrobenzofuran-3-yl)acetic acid] | 8
3 | Cc1cc(C2CCOC2)cc(C)c1-c1ccc(F)c2c1CC[C@H]2Oc1ccc2c(c1)OC[C@H]2CC(=O)O (stereo partly drawn) [Example 87, 2-((3S)-6-((1R)-4-(2,6-Dimethyl-4-(tetrahydrofuran-3-yl)phenyl)-7-fluoro-2,3-dihydro-1H-inden-1-yloxy)-2,3-dihydrobenzofuran-3-yl)acetic acid] | 24
4 | Cc1cc(-c2cc(=O)n(C)cn2)cc(C)c1-c1ccc(F)c2c1CC[C@H]2Oc1ccc2c(c1)OC[C@H]2CC(=O)O [Example 88, 2-((S)-6-((R)-4-(2,6-Dimethyl-4-(1-methyl-6-oxo-1,6-dihydropyrimidin-4-yl)phenyl)-7-fluoro-2,3-dihydro-1H-inden-1-yloxy)-2,3-dihydrobenzofuran-3-yl)acetic acid] | 3
5 | Cc1cc(-c2cnc(=O)n(C)c2)cc(C)c1-c1ccc(F)c2c1CC[C@H]2Oc1ccc2c(c1)OC[C@H]2CC(=O)O [Example 89, 2-((S)-6-((R)-4-(2,6-Dimethyl-4-(1-methyl-2-oxo-1,2-dihydropyrimidin-5-yl)phenyl)-7-fluoro-2,3-dihydro-1H-inden-1-yloxy)-2,3-dihydrobenzofuran-3-yl)acetic acid] | 9
6 | Cc1cc(-c2ccnnc2)cc(C)c1-c1ccc(F)c2c1CC[C@H]2Oc1ccc2c(c1)OC[C@H]2CC(=O)O [Example 90, 2-((S)-6-((R)-4-(2,6-Dimethyl-4-(pyridazin-4-yl)phenyl)-7-fluoro-2,3-dihydro-1H-inden-1-yloxy)-2,3-dihydrobenzofuran-3-yl)acetic acid] | 5
7 | Cc1cc(-c2ccncn2)cc(C)c1-c1ccc(F)c2c1CC[C@H]2Oc1ccc2c(c1)OC[C@H]2CC(=O)O [Example 91, 2-((S)-6-((R)-4-(2,6-Dimethyl-4-(pyrimidin-4-yl)phenyl)-7-fluoro-2,3-dihydro-1H-inden-1-yloxy)-2,3-dihydrobenzofuran-3-yl)acetic acid] | 3
8 | Cc1cc(-c2cnn(C)c(=O)c2)cc(C)c1-c1ccc(F)c2c1CC[C@H]2Oc1ccc2c(c1)OC[C@H]2CC(=O)O [Example 92, 2-((S)-6-((R)-4-(2,6-Dimethyl-4-(1-methyl-6-oxo-1,6-dihydropyridazin-4-yl)phenyl)-7-fluoro-2,3-dihydro-1H-inden-1-yloxy)-2,3-dihydrobenzofuran-3-yl)acetic acid] | 5
9 | COc1nccc(-c2cc(C)c(-c3ccc(F)c4c3CC[C@H]4Oc3ccc4c(c3)OC[C@H]4CC(=O)O)c(C)c2)n1 [Example 93] | 4
10 | Cc1cc(-c2nnn[nH]2)cc(C)c1-c1ccc(F)c2c1CC[C@H]2Oc1ccc2c(c1)OC[C@H]2CC(=O)O [Example 94, 2-((S)-6-((R)-4-(2,6-Dimethyl-4-(1H-tetrazol-5-yl)phenyl)-7-fluoro-2,3-dihydro-1H-inden-1-yloxy)-2,3-dihydrobenzofuran-3-yl)acetic acid] | 82
11 | Cc1cc(-c2nnn(C)n2)cc(C)c1-c1ccc(F)c2c1CC[C@H]2Oc1ccc2c(c1)OC[C@H]2CC(=O)O [Example 95, 2-((S)-6-((R)-4-(2,6-Dimethyl-4-(2-methyl-2H-tetrazol-5-yl)phenyl)-7-fluoro-2,3-dihydro-1H-inden-1-yloxy)-2,3-dihydrobenzofuran-3-yl)acetic acid] | 3
12 | Cc1cc(-c2nnnn2C)cc(C)c1-c1ccc(F)c2c1CC[C@H]2Oc1ccc2c(c1)OC[C@H]2CC(=O)O [Example 96, 2-((S)-6-((R)-4-(2,6-Dimethyl-4-(1-methyl-1H-tetrazol-5-yl)phenyl)-7-fluoro-2,3-dihydro-1H-inden-1-yloxy)-2,3-dihydrobenzofuran-3-yl)acetic acid] | 20
13 | Cc1cc(-c2ccn(C)c(=O)n2)cc(C)c1-c1ccc(F)c2c1CC[C@H]2Oc1ccc2c(c1)OC[C@H]2CC(=O)O [Example 97, 2-((S)-6-((R)-4-(2,6-Dimethyl-4-(1-methyl-2-oxo-1,2-dihydropyrimidin-4-yl)phenyl)-7-fluoro-2,3-dihydro-1H-inden-1-yloxy)-2,3-dihydrobenzofuran-3-yl)acetic acid] | 5
14 | Cc1cc(-c2nnn(CC(C)(C)O)n2)cc(C)c1-c1ccc(F)c2c1CC[C@H]2Oc1ccc2c(c1)OC[C@H]2CC(=O)O [Example 98, 2-((S)-6-((R)-7-Fluoro-4-(4-(2-(2-hydroxy-2-methylpropyl)-2H-tetrazol-5-yl)-2,6-dimethylphenyl)-2,3-dihydro-1H-inden-1-yloxy)-2,3-dihydrobenzofuran-3-yl)acetic acid] | 3
15 | Cc1cc(-c2nnn(C(C)(C)CO)n2)cc(C)c1-c1ccc(F)c2c1CC[C@H]2Oc1ccc2c(c1)OC[C@H]2CC(=O)O [Example 99, 2-((S)-6-((R)-7-Fluoro-4-(4-(2-(1-hydroxy-2-methylpropan-2-yl)-2H-tetrazol-5-yl)-2,6-dimethylphenyl)-2,3-dihydro-1H-inden-1-yloxy)-2,3-dihydrobenzofuran-3-yl)acetic acid] | 4
16 | CC(C)(C)COc1ncccc1-c1ccc(F)c2c1CC[C@H]2Oc1ccc2c(c1)OC[C@H]2CC(=O)O [Example 100] | 58
17 | Cc1cc(-c2ccc(=O)n(C)n2)cc(C)c1-c1ccc(F)c2c1CC[C@H]2Oc1ccc2c(c1)OC[C@H]2CC(=O)O [Example 101, 2-((S)-6-((R)-4-(2,6-Dimethyl-4-(1-methyl-6-oxo-1,6-dihydropyridazin-3-yl)phenyl)-7-fluoro-2,3-dihydro-1H-inden-1-yloxy)-2,3-dihydrobenzofuran-3-yl)acetic acid] | 3
18 | CN(C)C(=O)c1ccccc1-c1ccc(F)c2c1CC[C@H]2Oc1ccc2c(c1)OC[C@H]2CC(=O)O [Example 102, 2-((3S)-6-((1R)-4-(2-(Dimethylcarbamoyl)phenyl)-7-fluoro-2,3-dihydro-1H-inden-1-yloxy)-2,3-dihydrobenzofuran-3-yl)acetic acid] | 2240
19 | Cn1nnnc1-c1c(F)cccc1-c1ccc(F)c2c1CC[C@H]2Oc1ccc2c(c1)OC[C@H]2CC(=O)O [Example 103, 2-((3S)-6-((1R)-7-Fluoro-4-(3-fluoro-2-(1-methyl-1H-tetrazol-5-yl)phenyl)-2,3-dihydro-1H-inden-1-yloxy)-2,3-dihydrobenzofuran-3-yl)acetic acid] | 1430
20 | Cc1cc(-c2ccncc2)cc(C)c1-c1ccc(F)c2c1CC[C@H]2Oc1ccc2c(c1)OC[C@H]2CC(=O)O [Example 104, {(S)-6-[(R)-4-(2,6-Dimethyl-4-pyridin-4-yl-phenyl)-7-fluoro-indan-1-yloxy]-2,3-dihydro-benzofuran-3-yl}-acetic acid] | 7

From US8642585B2, “Indanyloxydihydrobenzofuranylacetic acids” (Boehringer Ingelheim International GmbH, priority 2012, dated 2014)
